In patent US20260098026A1, “M4 ACTIVATORS/MODULATORS AND USES THEREOF” (Cerevel Therapeutics, LLC, priority 2022, published 2026):

Experiments:
Assay type in all cases: cell-based
[1] = molecular target: T1, M3 muscarinic acetylcholine receptor (mAChR) (Homo sapiens, UniProt P20309); experiment: FLIPR calcium assay (Fluo 8), M3-overexpressing CHO-K1 cells
T1 construct: expressed in transfected cells; host or cells: CHO-K1
Procedure, shortened: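 CHO-K1 cells overexpressing each human receptor seeded at 15,000 per well, grown overnight at 37° C., 5% CO2, then loaded with Fluo-8 for 30 min. Compounds in HBSS added and calcium response read on FLIPR; EC50 and Emax calculated per subtype.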

[2] = molecular target: T2, M4 mAChR (Homo sapiens, UniProt P08173); experiment: cAMP TR-FRET assay with forskolin, M4-overexpressing CHO-K1 cells
T2 construct: expressed in transfected cells; host or cells: CHO-K1
T2 sequence (P08173 1-479): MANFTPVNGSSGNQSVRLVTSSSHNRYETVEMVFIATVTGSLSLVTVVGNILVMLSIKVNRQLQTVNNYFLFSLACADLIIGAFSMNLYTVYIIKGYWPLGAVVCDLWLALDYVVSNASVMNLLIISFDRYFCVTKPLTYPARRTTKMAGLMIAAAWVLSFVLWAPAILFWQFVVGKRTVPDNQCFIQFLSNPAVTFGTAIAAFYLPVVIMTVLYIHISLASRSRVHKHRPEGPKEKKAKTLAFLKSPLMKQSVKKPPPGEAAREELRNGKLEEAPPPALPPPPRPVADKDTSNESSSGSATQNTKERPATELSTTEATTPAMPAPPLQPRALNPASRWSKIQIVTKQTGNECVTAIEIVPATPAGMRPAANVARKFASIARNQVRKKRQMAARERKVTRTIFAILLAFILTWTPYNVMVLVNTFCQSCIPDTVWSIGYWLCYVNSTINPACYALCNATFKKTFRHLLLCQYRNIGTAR
Procedure, shortened: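 CHO-K1 cells overexpressing the receptor were stimulated with forskolin to raise cAMP, so that Gi-mediated agonist decreases could be measured. cAMP was quantified by TR-FRET competition between cellular cAMP and labelled donor for anti-cAMP antibody, giving potency and efficacy.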

[3] = molecular target: T3, M2 mAChR (Homo sapiens, UniProt P08172); experiment: cAMP TR-FRET assay with forskolin, M2-overexpressing CHO-K1 cells
T3 construct: expressed in transfected cells; host or cells: CHO-K1
T3 sequence (P08172 1-466): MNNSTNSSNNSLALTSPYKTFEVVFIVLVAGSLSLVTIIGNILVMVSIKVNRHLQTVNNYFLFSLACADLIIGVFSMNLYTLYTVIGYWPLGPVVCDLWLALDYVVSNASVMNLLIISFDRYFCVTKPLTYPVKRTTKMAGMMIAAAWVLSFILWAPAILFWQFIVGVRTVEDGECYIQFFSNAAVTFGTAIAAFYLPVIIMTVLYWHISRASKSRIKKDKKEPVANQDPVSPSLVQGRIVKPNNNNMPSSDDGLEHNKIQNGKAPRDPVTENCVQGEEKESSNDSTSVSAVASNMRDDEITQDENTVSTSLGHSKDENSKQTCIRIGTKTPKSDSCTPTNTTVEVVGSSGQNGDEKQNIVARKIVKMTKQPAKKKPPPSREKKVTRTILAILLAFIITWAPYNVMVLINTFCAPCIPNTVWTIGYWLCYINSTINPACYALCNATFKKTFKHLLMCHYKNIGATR
Description: The M2 and M4 mACh receptors are Gi-coupled receptors which, upon activation, produce a decrease in cAMP. Assays were developed that measured the potency and efficacy of compounds at the M2 or M4 mAChR using M2- or M4-overexpressing CHO-K1 cell lines. Time-resolved fluorescence resonance energy transfer (TR-FRET) technology was used, where signal occurs as a result of transfer of energy if the donor molecule is in close proximity to an acceptor molecule when the molecules have bound to the molecule of interest. The cAMP detection is a competition binding assay, where cAMP produced by cells competes for binding with the labeled donor molecule to the anti-cAMP acceptor antibody. Due to the low basal levels of cAMP in the CHO-K1 cell line, forskolin was used to increase cAMP levels to enable assessment of agonist activity at the mAChR of interest.

[4] = molecular target: T4, M5 muscarinic acetylcholine receptor (mAChR) (Homo sapiens, UniProt P08912); experiment: FLIPR calcium assay (Fluo 8), M5-overexpressing CHO-K1 cells
T4 construct: expressed in transfected cells; host or cells: CHO-K1
T4 sequence (P08912 1-532): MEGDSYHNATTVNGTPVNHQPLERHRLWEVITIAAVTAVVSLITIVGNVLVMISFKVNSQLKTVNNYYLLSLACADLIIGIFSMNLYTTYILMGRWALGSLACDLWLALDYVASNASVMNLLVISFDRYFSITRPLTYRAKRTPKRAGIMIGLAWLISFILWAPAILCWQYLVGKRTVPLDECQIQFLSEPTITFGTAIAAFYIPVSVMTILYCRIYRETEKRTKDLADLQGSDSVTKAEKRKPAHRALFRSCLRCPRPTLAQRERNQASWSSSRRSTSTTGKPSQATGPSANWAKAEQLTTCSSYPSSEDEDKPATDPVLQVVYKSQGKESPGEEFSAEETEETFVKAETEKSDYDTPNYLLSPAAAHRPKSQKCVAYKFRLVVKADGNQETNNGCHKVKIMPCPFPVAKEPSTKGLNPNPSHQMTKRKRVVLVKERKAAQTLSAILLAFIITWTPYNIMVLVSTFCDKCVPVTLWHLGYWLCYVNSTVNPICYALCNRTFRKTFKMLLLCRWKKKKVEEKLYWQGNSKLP
Description: (§1) Stimulation of a Gq-coupled G-protein coupled receptors (GPCRs), result in an efflux of calcium from the endoplasmic reticulum to the cytoplasm (Berridge, 1993), thus rendering this assay appropriate for the assessment of M1, M3 and M5 receptors. CHO-K1 cells overexpressing the M1, M3, or M5 muscarinic acetylcholine receptor (mAChR) were dispensed at 15,000 cells per well in 30 μl volume to 384-well plates and grown overnight at 37° C. in a 5% CO2 atmosphere. Fluo-8 Solution, 10 μl per well, was added to each well and incubated for 30 minutes at 37° C. in a 5% CO2 atmosphere. Compounds diluted in Hanks' balanced salt solution (HBSS) were transferred to the cell assay plate at 10 μl per well, and then read on a FLIPR instrument. EC50 and Emax figures were calculated from the resulting data for each receptor subtype.

[5] = molecular target: T5, M1 muscarinic acetylcholine receptor (mAChR) (Homo sapiens, UniProt P11229); experiment: FLIPR calcium assay (Fluo 8), M1-overexpressing CHO-K1 cells
T5 construct: expressed in transfected cells; host or cells: CHO-K1
T5 sequence (P11229 1-460): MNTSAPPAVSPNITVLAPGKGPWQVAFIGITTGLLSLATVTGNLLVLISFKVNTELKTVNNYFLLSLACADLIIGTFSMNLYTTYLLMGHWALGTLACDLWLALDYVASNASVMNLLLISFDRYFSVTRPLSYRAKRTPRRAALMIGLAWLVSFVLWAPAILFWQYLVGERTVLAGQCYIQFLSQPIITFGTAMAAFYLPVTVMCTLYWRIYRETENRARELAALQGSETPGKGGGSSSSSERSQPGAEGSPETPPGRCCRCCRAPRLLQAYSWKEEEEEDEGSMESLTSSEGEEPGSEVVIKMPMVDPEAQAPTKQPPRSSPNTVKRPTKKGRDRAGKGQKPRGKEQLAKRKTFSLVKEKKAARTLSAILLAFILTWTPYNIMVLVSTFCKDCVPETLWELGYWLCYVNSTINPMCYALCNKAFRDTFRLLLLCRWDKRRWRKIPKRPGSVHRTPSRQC
Description: as §1

T1 sequence (P20309 whole entry): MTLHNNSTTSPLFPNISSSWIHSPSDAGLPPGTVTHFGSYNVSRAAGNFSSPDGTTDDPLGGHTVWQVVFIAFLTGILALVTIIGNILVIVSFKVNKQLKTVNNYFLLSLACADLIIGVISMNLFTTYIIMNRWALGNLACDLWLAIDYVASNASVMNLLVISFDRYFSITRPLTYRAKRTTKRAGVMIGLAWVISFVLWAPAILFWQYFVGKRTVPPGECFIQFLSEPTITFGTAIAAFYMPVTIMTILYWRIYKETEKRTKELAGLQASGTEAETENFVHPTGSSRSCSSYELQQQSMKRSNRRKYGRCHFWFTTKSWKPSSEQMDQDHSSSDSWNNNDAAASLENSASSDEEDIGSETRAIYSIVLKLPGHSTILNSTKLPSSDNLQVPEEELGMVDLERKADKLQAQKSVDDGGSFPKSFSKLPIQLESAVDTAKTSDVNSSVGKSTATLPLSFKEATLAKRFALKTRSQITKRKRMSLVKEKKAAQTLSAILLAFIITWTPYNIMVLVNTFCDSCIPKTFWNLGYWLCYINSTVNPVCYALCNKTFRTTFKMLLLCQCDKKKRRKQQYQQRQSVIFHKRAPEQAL

Row | Compound | EC50 ([1]; FLIPR calcium) [µM] | Emax ([2]; cAMP TR-FRET with forskolin) [%] | M2 EC50 (nM) ([3]; cAMP TR-FRET with forskolin) | EC50 ([1]; FLIPR) [µM] | Emax ([2]; cAMP assay) [%] | Emax ([3]; cAMP assay) [%] | Emax ([4]; FLIPR calcium) [%] | Emax ([5]; FLIPR calcium) [%] | Emax ([4]; FLIPR) [%] | Emax ([5]; FLIPR) [%]
1 | CCOC(=O)N1CC2(CC[C@@H](N3CCN(c4cc(F)cnc4C4CCOCC4)CC3)C2)C1 [Compound A7, ethyl (6R)-6-[4-(5-fluoro-2-tetrahydropyran-4-yl-3-pyridyl)piperazin-1-yl]-2-azaspiro[3.4]octane-2-carboxylate] | > 10 | 80 to 100 | I.A |  |  |  |  |  |  | 
2 | CCOC(=O)N1CC2(CC[C@@H](N3CCN(c4cc(F)cnc4-c4cnn(C(F)F)c4)CC3)C2)C1 [Compound A194] |  |  |  | > 10 | 80 to 100 | < 19 |  |  |  | 
3 | CCNc1ncc(-c2ncc(F)cc2N2CCN([C@@H]3CCC4(C3)CN(C(=O)OCC)C4)CC2)cn1 [Compound A80] | > 10 | 80 to 100 |  |  |  |  | 19 to 49.9 | 19 to 49.9 |  | 
4 | CCOC(=O)N1CC2(CC[C@@H](N3CCN(c4cc(F)cnc4-c4ccc(=O)[nH]c4)CC3)C2)C1 [Compound A210] |  |  |  | > 10 | 80 to 100 |  |  |  | 19 to 49.9 | 50 to 79.9
5 | CCOC(=O)N1CC2(CC[C@@H](N3CCN(c4cc(F)cnc4-c4cnc(SC)nc4)CC3)C2)C1 [Compound A63] | > 10 | 80 to 100 |  |  |  |  | 19 to 49.9 | 19 to 49.9 |  | 
6 | CCOC(=O)N1CC2(CC[C@@H](N3CCN(c4cc(F)cnc4-c4c[nH]c(=O)c(F)c4)CC3)C2)C1 [Compound A206] |  |  |  | > 10 | 80 to 100 |  |  |  | 19 to 49.9 | 19 to 49.9
7 | CCOC(=O)N1CC2(CC[C@@H](N3CCN(c4cc(F)cnc4-c4ccc(CO)o4)CC3)C2)C1 [Compound A91] | > 10 | 80 to 100 |  |  |  |  | 19 to 49.9 |  |  | 
8 | CCOC(=O)N1CC2(CC[C@@H](N3CCN(c4cc(F)cnc4-c4cnn(CC(C)C)c4)CC3)C2)C1 [Compound A71] | > 10 | 80 to 100 |  |  |  |  | 19 to 49.9 |  |  | 
